Several values for one entry are separate records, joined by “and”; a condition that tells them apart may be missing. Equal entries are not always repeated.
Legend:
p-AKT Ser473 = test: Western blot, TPO-activated AKT phosphorylation in UT-7/TPO cells; format: cell-based; conditions: then TPO
Method: (§1) In addition, Compound B was examined for the effects on the PI3K signaling pathway by determining the levels of AKT and S6 phosphorylation with or without TPO activation. Two cell lines, BaF3/MPL and UT-7/TPO sensitive or responsive to TPO activation were used. The cells were starved (i.e. growing on medium having less FBS) in […] FBS/RPMI for two hours before treated with 0.1, 1.0, or 2.0 μM of Compound B or vehicle (0.1% DMSO in RPMI) for 2 hours at 37° C. To examine the TPO-activated phosphorylation, the cells were then treated or activated with 50 ng/mL of human recombinant TPO (Peprotech) for 10 minutes at 37° C. The TPO activation or treatment may reflect the conditions in diseased cells as the PI3K pathway is activated by TPO in myelofibrosis. After treating with compound and/or TPO, the cells were collected, lysed by lysis buffer (Cell Signaling), separated by SDS-PAGE, and analyzed by the Western blot using antibodies specific to p-AKT Ser473 or pS6 Ser235/236 (Cell Signaling). The phosphorylation levels in treated cells were calculated and compared to those of untreated cells (i.e. vehicle as negative control).

pS6 Ser235/236 = test: Western blot, TPO-activated S6 phosphorylation in UT-7/TPO cells; format: cell-based; conditions: then TPO
Method: as §1

Ri-1 DLBCL cells = test: Cell death assay (Annexin V/7AAD) in Ri-1 DLBCL cells; format: cell-based; conditions: 3 days
Method: Further, whole blood (WB) autologous B-cell depletion and cell-death induction assays were conducted as described in Mossner et al., Blood 115:4393-402, 2010. For cell death assay: Ri-1 DLBCL cells were seeded at 15,000 cells/well in 96-well plates. Cells were preincubated with Compound B or DMSO for 1 hour before the addition of antibody. Plates were incubated at 37° C. in a humidified CO2 chamber for 3 days. Cells were washed once with PBS and treated with Accutase for 15 minutes before being stained with Guava Nexin® reagent and analyzed on the Guava EasyCyte flow cytometer (Merck Millipore).
After 3 days of incubation, cell death was assessed by Annexin V/7AAD staining.

WIL2-S = test: ADCC LDH release assay, purified NK cells against WIL2-S target cells; format: cell-based, human; conditions: for Percentage of ADCC, 5 nM Compound B / Percentage of ADCC, 50 nM Compound B / Percentage of ADCC, 500 nM Compound B: antibody concentration 10 μg/mL; for Percentage of maximum ADCC, obinutuzumab: obinutuzumab 10 μg/mL; for Percentage of maximum ADCC, rituximab: rituximab 10 μg/mL
[1] = Compound B 0.98 nM, FcγRIIIa 158F/F
[2] = Compound B 0.98 nM, FcγRIIIa 158F/V
[3] = Compound B 0.98 nM, FcγRIIIa 158V/V
[4] = Compound B 1.95 nM, FcγRIIIa 158F/F
[5] = Compound B 1.95 nM, FcγRIIIa 158F/V
[6] = Compound B 1.95 nM, FcγRIIIa 158V/V
[7] = Compound B 3.91 nM, FcγRIIIa 158F/F
[8] = Compound B 3.91 nM, FcγRIIIa 158F/V
[9] = Compound B 3.91 nM, FcγRIIIa 158V/V
[10] = Compound B 7.81 nM, FcγRIIIa 158F/F
[11] = Compound B 7.81 nM, FcγRIIIa 158F/V
[12] = Compound B 7.81 nM, FcγRIIIa 158V/V
[13] = Compound B 15.63 nM, FcγRIIIa 158F/V
[14] = Compound B 15.63 nM, FcγRIIIa 158V/V
[15] = Compound B 31.25 nM, FcγRIIIa 158F/V
[16] = Compound B 31.25 nM, FcγRIIIa 158V/V
[17] = Compound B 62.5 nM, FcγRIIIa 158F/F
[18] = Compound B 62.5 nM, FcγRIIIa 158F/V
[19] = Compound B 62.5 nM, FcγRIIIa 158V/V
[20] = Compound B 125 nM, FcγRIIIa 158F/F
[21] = Compound B 125 nM, FcγRIIIa 158F/V
[22] = Compound B 125 nM, FcγRIIIa 158V/V
[23] = Compound B 250 nM, FcγRIIIa 158F/F
[24] = Compound B 250 nM, FcγRIIIa 158F/V
[25] = Compound B 250 nM, FcγRIIIa 158V/V
[26] = Compound B 500 nM, FcγRIIIa 158F/F
[27] = Compound B 500 nM, FcγRIIIa 158F/V
[28] = Compound B 500 nM, FcγRIIIa 158V/V
[29] = Compound B 1000 nM, FcγRIIIa 158F/F, n=2
[30] = Compound B 1000 nM, FcγRIIIa 158F/V, n=2

CC[C@H](Nc1ncnc2[nH]cnc12)c1nc2cccc(F)c2c(=O)n1-c1ccccc1 [Compound B, (S)-2-(1-((9H-purin-6-yl)amino)propyl)-5-fluoro-3-phenylquinazolin-4(3H)-one]
reduced p-AKT levels vs vehicle (p-AKT Ser473; 0.1 μM 2 h): 11% | reduced p-AKT levels vs vehicle (p-AKT Ser473; 1.0 μM 2 h): 44% | reduced p-AKT levels vs vehicle (p-AKT Ser473; 2.0 μM 2 h): 55% | reduced p-S6 levels vs vehicle (pS6 Ser235/236; 0.1 μM 2 h): 13% | reduced p-S6 levels vs vehicle (pS6 Ser235/236; 1.0 μM 2 h): 28% | reduced p-S6 levels vs vehicle (pS6 Ser235/236; 2.0 μM 2 h): 48% | Percentage of total Annexin V+ cells (Ri-1 DLBCL cells; 100 nM Compound B alone): 28% and 27% | Percentage of total Annexin V+ cells (Ri-1 DLBCL cells; 300 nM Compound B alone): 31% and 33% | Percentage of total Annexin V+ cells (Ri-1 DLBCL cells; 600 nM Compound B alone): 35% and 37% | Percentage of ADCC, 5 nM Compound B (WIL2-S; E:T 3:1): 58% and 56% and 53% and 49% and 46% and 44% and 39% | Percentage of ADCC, 5 nM Compound B (WIL2-S; E:T 10:1): 72% and 75% and 73% and 79% and 74% | Percentage of ADCC, 5 nM Compound B (WIL2-S; E:T 30:1): 81% and 82% and 79% and 76% and 80% and 77% and 85% and 84% | Percentage of ADCC, 50 nM Compound B (WIL2-S; E:T 3:1): 54% and 58% and 50% and 39% and 37% and 44% and 42% | Percentage of ADCC, 50 nM Compound B (WIL2-S; E:T 10:1): 72% and 74% and 69% and 77% and 76% and 73% | Percentage of ADCC, 50 nM Compound B (WIL2-S; E:T 30:1): 76% and 81% and 80% and 79% and 75% and 85% and 84% | Percentage of ADCC, 500 nM Compound B (WIL2-S; E:T 3:1): 50% and 53% and 36% and 34% and 39% and 35% and 38% | Percentage of ADCC, 500 nM Compound B (WIL2-S; E:T 10:1): 67% and 73% and 71% and 66% and 70% | Percentage of ADCC, 500 nM Compound B (WIL2-S; E:T 30:1): 76% and 79% and 77% and 72% and 75% and 81% and 82% | Percentage of maximum ADCC, obinutuzumab (WIL2-S; [1]): 91% and 104% | Percentage of maximum ADCC, obinutuzumab (WIL2-S; [2]): 103% and 104% | Percentage of maximum ADCC, obinutuzumab (WIL2-S; [3]): 101% and 99% | Percentage of maximum ADCC, rituximab (WIL2-S; [1]): 104% and 107% | Percentage of maximum ADCC, rituximab (WIL2-S; [2]): 100% and 105% | Percentage of maximum ADCC, rituximab (WIL2-S; [3]): 102% and 99% | Percentage of maximum ADCC, obinutuzumab (WIL2-S; [4]): 89% and 106% | Percentage of maximum ADCC, obinutuzumab (WIL2-S; [5]): 104% and 112% | Percentage of maximum ADCC, obinutuzumab (WIL2-S; [6]): 107% and 100% | Percentage of maximum ADCC, rituximab (WIL2-S; [4]): 103% and 111% | Percentage of maximum ADCC, rituximab (WIL2-S; [5]): 105% and 111% | Percentage of maximum ADCC, rituximab (WIL2-S; [6]): 105% and 104% | Percentage of maximum ADCC, obinutuzumab (WIL2-S; [7]): 84% and 108% | Percentage of maximum ADCC, obinutuzumab (WIL2-S; [8]): 105% and 110% | Percentage of maximum ADCC, obinutuzumab (WIL2-S; [9]): 103% and 91% | Percentage of maximum ADCC, rituximab (WIL2-S; [7]): 97% and 109% | Percentage of maximum ADCC, rituximab (WIL2-S; [8]): 102% and 110% | Percentage of maximum ADCC, rituximab (WIL2-S; [9]): 102% and 105% | Percentage of maximum ADCC, obinutuzumab (WIL2-S; [10]): 89% and 107% | Percentage of maximum ADCC, obinutuzumab (WIL2-S; [11]): 109% and 107% | Percentage of maximum ADCC, obinutuzumab (WIL2-S; [12]): 94% and 90% | Percentage of maximum ADCC, rituximab (WIL2-S; [10]): 91% and 108% | Percentage of maximum ADCC, rituximab (WIL2-S; [11]): 104% and 110% | Percentage of maximum ADCC, rituximab (WIL2-S; [12]): 100% | Percentage of maximum ADCC, obinutuzumab (WIL2-S; Compound B 15.63 nM, FcγRIIIa 158F/F): 80% and 108% | Percentage of maximum ADCC, obinutuzumab (WIL2-S; [13]): 106% and 109% | Percentage of maximum ADCC, obinutuzumab (WIL2-S; [14]): 93% and 90% | Percentage of maximum ADCC, rituximab (WIL2-S; [13]): 100% and 108% | Percentage of maximum ADCC, rituximab (WIL2-S; [14]): 98% and 101% | Percentage of maximum ADCC, obinutuzumab (WIL2-S; Compound B 31.25 nM, FcγRIIIa 158F/F): 85% and 107% | Percentage of maximum ADCC, obinutuzumab (WIL2-S; [15]): 107% | Percentage of maximum ADCC, obinutuzumab (WIL2-S; [16]): 95% and 82% | Percentage of maximum ADCC, rituximab (WIL2-S; [15]): 100% and 104% | Percentage of maximum ADCC, rituximab (WIL2-S; [16]): 94% | Percentage of maximum ADCC, obinutuzumab (WIL2-S; [17]): 88% and 108% | Percentage of maximum ADCC, obinutuzumab (WIL2-S; [18]): 112% and 103% | Percentage of maximum ADCC, obinutuzumab (WIL2-S; [19]): 98% and 78% | Percentage of maximum ADCC, rituximab (WIL2-S; [17]): 88% and 108% | Percentage of maximum ADCC, rituximab (WIL2-S; [18]): 101% and 107% | Percentage of maximum ADCC, rituximab (WIL2-S; [19]): 96% and 99% | Percentage of maximum ADCC, obinutuzumab (WIL2-S; [20]): 87% and 110% | Percentage of maximum ADCC, obinutuzumab (WIL2-S; [21]): 111% and 105% | Percentage of maximum ADCC, obinutuzumab (WIL2-S; [22]): 94% and 84% | Percentage of maximum ADCC, rituximab (WIL2-S; [20]): 87% and 108% | Percentage of maximum ADCC, rituximab (WIL2-S; [21]): 105% and 102% | Percentage of maximum ADCC, rituximab (WIL2-S; [22]): 95% and 98% | Percentage of maximum ADCC, obinutuzumab (WIL2-S; [23]): 91% and 109% | Percentage of maximum ADCC, obinutuzumab (WIL2-S; [24]): 106% and 102% | Percentage of maximum ADCC, obinutuzumab (WIL2-S; [25]): 99% and 89% | Percentage of maximum ADCC, rituximab (WIL2-S; [23]): 87% and 109% | Percentage of maximum ADCC, rituximab (WIL2-S; [24]): 98% and 101% | Percentage of maximum ADCC, rituximab (WIL2-S; [25]): 95% and 94% | Percentage of maximum ADCC, obinutuzumab (WIL2-S; [26]): 83% and 104% | Percentage of maximum ADCC, obinutuzumab (WIL2-S; [27]): 106% and 94% | Percentage of maximum ADCC, obinutuzumab (WIL2-S; [28]): 92% and 79% | Percentage of maximum ADCC, rituximab (WIL2-S; [26]): 84% and 105% | Percentage of maximum ADCC, rituximab (WIL2-S; [27]): 95% and 99% | Percentage of maximum ADCC, rituximab (WIL2-S; [28]): 91% and 96% | Percentage of maximum ADCC, obinutuzumab (WIL2-S; [29]): 79% and 103% | Percentage of maximum ADCC, obinutuzumab (WIL2-S; [30]): 105% and 93% | Percentage of maximum ADCC, rituximab (WIL2-S; [29]): 80% and 100% | Percentage of maximum ADCC, rituximab (WIL2-S; [30]): 95% and 88% | Percentage of maximum ADCC, rituximab (WIL2-S; Compound B 1000 nM, FcγRIIIa 158V/V, n=2): 87% and 84% | effect on obinutuzumab-mediated ADCC (WIL2-S; WIL2-S, E:T=10:1, 4 h, n=9): did not affect | effect on NK-mediated ADCC (WIL2-S; varying E:T ratios, antibody 10 μg/mL, n=3): did not affect

Reference: patent US20160331754A1, “THERAPIES FOR TREATING CANCERS” (GILEAD SCIENCES, INC., priority 2014, published 2016)
